Reference: PubChem BioAssay (NCI)
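In this assay, cells in 96-well plates receive the compound at five concentrations for 48 hours. Endpoints are linearly interpolated between the surrounding concentrations. At the TGI there is no net growth.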

Key:
Experiment in all cases: NCI anticancer screen, dose series, 48 h
786-0 renal = tested on: 786-0 renal
CCRF-CEM leukemia = tested on: CCRF-CEM leukemia
EKVX NSCLC = tested on: EKVX NSCLC
HCT-15 colon = tested on: HCT-15 colon
HOP-62 NSCLC = tested on: HOP-62 NSCLC
HOP-92 NSCLC = tested on: HOP-92 NSCLC
KM12 colon = tested on: KM12 colon
MDA-MB-231 breast = tested on: MDA-MB-231 breast
NCI-H23 lung = tested on: NCI-H23 lung
NCI/ADR-RES ovarian = tested on: NCI/ADR-RES ovarian
SF-268 CNS = tested on: SF-268 CNS
SF-539 CNS = tested on: SF-539 CNS
SNB-19 CNS = tested on: SNB-19 CNS
SNB-75 CNS = tested on: SNB-75 CNS
SR leukemia = tested on: SR leukemia
SW-620 colon = tested on: SW-620 colon
T-47D breast = tested on: T-47D breast
UACC-62 melanoma = tested on: UACC-62 melanoma
A498 renal = tested on: A498 renal
RXF 393 renal = tested on: RXF 393 renal

Structure (SMILES)	TGI (786-0 renal) [µM]	TGI (CCRF-CEM leukemia) [µM]	TGI (EKVX NSCLC) [µM]	TGI (HCT-15 colon) [µM]	TGI (HOP-62 NSCLC) [µM]	TGI (HOP-92 NSCLC) [µM]	TGI (KM12 colon) [µM]	TGI (MDA-MB-231 breast) [µM]	TGI (NCI-H23 lung) [µM]	TGI (NCI/ADR-RES ovarian) [µM]	TGI (SF-268 CNS) [µM]	TGI (SF-539 CNS) [µM]	TGI (SNB-19 CNS) [µM]	TGI (SNB-75 CNS) [µM]	TGI (SR leukemia) [µM]	TGI (SW-620 colon) [µM]	TGI (T-47D breast) [µM]	TGI (UACC-62 melanoma) [µM]	TGI (A498 renal) [µM]	TGI (RXF 393 renal) [µM]
CN1/C(=C\N=O)C(C)(C)N(O)C1(C)C	> 100	> 100	> 100	> 100	> 100	> 100	> 100	> 100	> 100	> 100	> 100	> 100	> 100	> 100	> 100	> 100	> 100	> 100	–	–
Nc1nncc2n[nH]nc12	> 100	> 100	> 100	> 100	> 100	–	> 100	> 100	> 100	> 100	> 100	> 100	> 100	> 100	> 100	> 100	> 100	> 100	> 100	> 100
CSc1c(C(N)=S)c(N)nn1-c1ccccc1	> 100	–	> 100	> 100	–	> 100	> 100	> 100	> 100	> 100	> 100	> 100	> 100	> 100	> 100	> 100	> 100	> 100	> 100	> 100
C[C@@H](c1ccccc1)N1C[C@@H](c2ccc3c(c2)OCO3)[C@@H]2C(=O)CCC[C@@H]21	> 100	> 100	> 100	> 100	> 100	> 100	> 100	> 100	> 100	> 100	> 100	–	> 100	> 100	> 100	–	> 100	52	59.1	> 100
COc1ccc2[nH]c3c(c2c1)CCc1c(OC)cccc1-3	> 100	> 100	> 100	> 100	> 100	> 100	> 100	> 100	> 100	> 100	> 100	–	> 100	> 100	> 100	> 100	> 100	> 100	> 100	–
COc1ccc(N[C@H](CS(=O)c2ccc(C)cc2)C(F)(F)F)cc1 (some centres not stated)	> 100	> 100	> 100	> 100	–	> 100	> 100	> 100	> 100	> 100	–	> 100	> 100	> 100	> 100	> 100	> 100	> 100	–	> 100
Fc1ccccc1-c1cc(=S)c2cc3c(cc2[nH]1)OCO3	> 100	> 100	> 100	> 100	> 100	> 100	> 100	> 100	> 100	63.2	> 100	> 89	98.1	–	> 100	> 100	> 100	> 30	> 100	> 100
